# Experimental data as given in ChEMBL document CHEMBL5137017, “Identification of NVP-CLR457 as an Orally Bioavailable Non-CNS-Penetrant pan-Class IA Phosphoinositol-3-Kinase Inhibitor” (J Med Chem, 2022).
# The source made the active and inactive calls. The calls are words filed in the database; no cut-off is given here.
# Legend:
# [1] = Clast in athymic nude mouse xenografted with rat Rat1 cells expressing myr-p110alpha at 10 mg/kg, po measured after 8 days by LC-MS/MS analysis; format: ADME, organism-based; conditions: in vivo, time 8 day, read-out: Clast
# [2] = Aqueous solubility of compound in buffer at pH 7.4 by HPLC analysis; format: physicochemical
# [3] = Tlast in athymic nude mouse xenografted with rat Rat1 cells expressing myr-p110alpha at 40 mg/kg, po measured after 8 days by LC-MS/MS analysis; format: ADME, organism-based; conditions: in vivo, 192 h, time 8 day
# [4] = AUC(0 to Tlast) in athymic nude mouse xenografted with rat Rat1 cells expressing myr-p110alpha at 20 mg/kg, po measured after 8 days by LC-MS/MS analysis; format: ADME, organism-based; design: dose 20 mg/kg, time 8 day, route po; conditions: in vivo
# [5] = Lipophilicity, logD of compound at pH 6.5; format: physicochemical; conditions: buffer
# [6] = Toxicity in athymic nude mouse xenografted with human HBRX2524 cells assessed as change in body weight at 40 mg/kg, po qd measured upto 16 days; format: organism-based; conditions: in vivo, 384 h, time < 16 day
# [7] = Efflux ratio of apparent permeability from […] in human Caco-2 cells at 10 uM incubated upto 120 mins by LC-MS/MS analysis; format: ADME, cell-based; conditions: caco-2, 2 h
# [8] = target: Serine/threonine-protein kinase mTOR (Homo sapiens, UniProt P42345); assay: Displacement of Alexa Fluor labelled Tracer-314 from human N-terminal GST-tagged mTOR incubated for 1 hr by TR-FRET assay
# [9] = system: Rat1; assay: Antitumor activity at rat Rat1 cells expressing myr-p110alpha xenografted in athymic nude mouse assessed as T/C ratio at 20 mg/kg, po bid measured after 15 to 24 days; format: functional; conditions: time 15-24 day
# [10] = Stability in mouse liver microsomes assessed as hepatic extraction preincubated for 3 mins followed by NADPH addition and measured after 60 mins; format: ADME, Microsome; conditions: time 63 min, read-out: ERH
# [11] = Volume of distribution at steady state in OF1 mouse at 10 mg/kg,po or 3 mg/kg,iv measured upto 24 hrs by LC-MS/MS analysis; format: ADME, organism-based; conditions: in vivo
# [12] = Stability in human liver microsomes assessed as hepatic extraction preincubated for 3 mins followed by NADPH addition and measured after 60 mins; format: ADME, Microsome; conditions: read-out: ERH
# [13] = Oral bioavailability in Sprague-Dawley rat at 21.5 mg/kg using hydroxypropyl methylcellulose amorphous solid dispersion form of sample; format: ADME, organism-based; conditions: in vivo
# [14] = Cmax in athymic nude mouse xenografted with rat Rat1 cells expressing myr-p110alpha at 10 mg/kg, po measured after 8 days by LC-MS/MS analysis; format: ADME, organism-based; design: dose 10 mg/kg, time 8 day, route po; conditions: in vivo
# [15] = Plasma protein binding in OF1 mouse plasma at 10 mg/kg,po or 3 mg/kg,iv measured after 4 hrs by rapid equilibrium dialysis method; format: ADME, organism-based; conditions: read-out: PPB (converted)
# [16] = system: Rat1; assay: Antitumor activity at rat Rat1 cells expressing myr-p110alpha xenografted in athymic nude mouse assessed as T/C ratio at 3 mg/kg, po qd measured after 14 to 22 days; format: functional; conditions: time 14-22 day
# [17] = Tmax in Sprague-Dawley rat at 30 mg/kg, po measured upto 24 hrs by LC-MS/MS analysis; format: ADME, organism-based; conditions: in vivo
# [18] = Effect on plasma insulin level in athymic nude mouse xenografted with rat Rat1 cells expressing myr-p110alpha at 20 mg/kg, po qd measured for 1 to 10 hrs by glucometer analysis; format: toxicity, organism-based; conditions: in vivo, time 1-10 hrs
# [19] = Tmax in beagle dog at 0.3 mg/kg, po measured upto 24 hrs by LC-MS/MS analysis; format: ADME, organism-based, Canis lupus familiaris; conditions: in vivo
# [20] = Brain to blood ratio in OF1 mouse at 1 mg/kg, iv measured at 1 hr post dose by LC-MS/MS analysis; format: ADME, organism-based; conditions: brain and blood, read-out: BBR
# [21] = Inhibition of PI3K PTEN mutant in human HCC1395 cells assessed as reduction in phosphorylation of AKT at Ser473 residue by Western blot analysis; format: cell-based
# [22] = Tmax in OF1 mouse at 10 mg/kg,po or 3 mg/kg,iv measured upto 24 hrs by LC-MS/MS analysis; format: ADME, organism-based; conditions: in vivo
# [23] = AUC(0 to Tlast) in athymic nude mouse xenografted with rat Rat1 cells expressing myr-p110alpha at 10 mg/kg, po measured after 8 days by LC-MS/MS analysis; format: ADME, organism-based; design: time 8 day, dose 10 mg/kg, route po; conditions: in vivo
# [24] = Dose normalized AUC(0 to Tlast) in athymic nude mouse xenografted with rat Rat1 cells expressing myr-p110alpha at 10 mg/kg, po measured after 8 days by LC-MS/MS analysis; format: ADME, organism-based; conditions: in vivo, 192 h, time 8 day
# [25] = system: Mus musculus; assay: In vivo Inhibition of AKT phosphorylation at Ser473 residue in athymic nude mouse xenografted with rat Rat1-myr-p110alpha cells at 10 mg/kg, po qd measured after 1 to 4 hrs; format: functional, organism-based; conditions: time 1-4 hrs
# [26] = In vivo Inhibition of AKT phosphorylation at Ser473 residue in athymic nude mouse xenografted with rat Rat1-myr-p110alpha cells at 3 mg/kg, po qd measured after 1 hr; format: functional
# [27] = Inhibition of wild type PI3K in human HCC1187 cells assessed as reduction in phosphorylation of AKT at Ser473 residue by Western blot analysis; format: cell-based
# [28] = Half life in Beagle dog at 5.4 mg/kg, po measured upto 24 hrs using PVP-ASD form of sample by LC-MS/MS analysis; format: ADME, organism-based, Canis lupus familiaris; conditions: in vivo
smiles,measurement,setting,value
C[C@H]1OC(=O)N(c2nc(-c3cnc(N)nc3C(F)(F)F)cc(N3CCOCC3)n2)[C@H]1CO,concentration at 192 h,[1],140 nM
same,solubility,[2],26 µM
same,Tlast,[3],24 h
same,AUC(0-t) at 192 h,[4],26 µM·h
same,logD,[5],2
same,Activity,[6],Non-Toxic
same,Ratio,[7],2.2
same,IC50,[8],2470 nM
same,T/C,[9],-0.8
same,hepatic extraction ratio at 1 h,[10],0.34
same,Vdss,[11],2 L/kg
same,hepatic extraction ratio at 1 h,[12],0.37
same,bioavailability,[13],100%
same,Cmax,[14],2280 nM
same,fraction unbound at 4 h,[15],0.24
same,T/C,[16],0.43
same,Tmax,[17],4 h
same,Activity,[18],Toxic
same,Tmax,[19],1 h
same,Kp at 1 h,[20],0.05
same,IC50,[21],169 nM
same,Tmax,[22],0.5 h
same,AUC(0-t) at 192 h,[23],16 µM·h
same,AUC/dose,[24],1.57 µM·h
same,inhibition,[25],Active
same,inhibition in vivo at 3 mg/kg,[26],80%
same,IC50,[27],94 nM
same,half-life,[28],9.9 h
